# Where two headings read alike, the source gives them in different places.
# How the values were obtained:
# Tyk2 kinase domain (DH1) = Tyk2 kinase domain (DH1) (Homo sapiens (Human), UniProt P29597); assay: Tyk2 Radioactive Kinase Assay; format: biochemical; settings: for inhibition at 10 µM: read-out: Tyk2 JH1% Inhibition @ 10 μM
# How it was run: (§1)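 Values are single-concentration percent inhibition figures. They were obtained with 10 μM compound in a radioactivity-based kinase assay run separately on each enzyme.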
# [1] = target: JAK2/JAK2 homdimeric complex (Homo sapiens (Human), UniProt O60674); assay: GM-CSF Induced pSTAT5 in Human PBMC; format: cell-based; settings: GM-CSF 5 ng/mL for 20 minutes, pSTAT5 by MSD, read-out: PBMC_GMCSF_pSTAT5 IC50
# JAK2/JAK2 homdimeric complex, sequence (O60674 whole entry): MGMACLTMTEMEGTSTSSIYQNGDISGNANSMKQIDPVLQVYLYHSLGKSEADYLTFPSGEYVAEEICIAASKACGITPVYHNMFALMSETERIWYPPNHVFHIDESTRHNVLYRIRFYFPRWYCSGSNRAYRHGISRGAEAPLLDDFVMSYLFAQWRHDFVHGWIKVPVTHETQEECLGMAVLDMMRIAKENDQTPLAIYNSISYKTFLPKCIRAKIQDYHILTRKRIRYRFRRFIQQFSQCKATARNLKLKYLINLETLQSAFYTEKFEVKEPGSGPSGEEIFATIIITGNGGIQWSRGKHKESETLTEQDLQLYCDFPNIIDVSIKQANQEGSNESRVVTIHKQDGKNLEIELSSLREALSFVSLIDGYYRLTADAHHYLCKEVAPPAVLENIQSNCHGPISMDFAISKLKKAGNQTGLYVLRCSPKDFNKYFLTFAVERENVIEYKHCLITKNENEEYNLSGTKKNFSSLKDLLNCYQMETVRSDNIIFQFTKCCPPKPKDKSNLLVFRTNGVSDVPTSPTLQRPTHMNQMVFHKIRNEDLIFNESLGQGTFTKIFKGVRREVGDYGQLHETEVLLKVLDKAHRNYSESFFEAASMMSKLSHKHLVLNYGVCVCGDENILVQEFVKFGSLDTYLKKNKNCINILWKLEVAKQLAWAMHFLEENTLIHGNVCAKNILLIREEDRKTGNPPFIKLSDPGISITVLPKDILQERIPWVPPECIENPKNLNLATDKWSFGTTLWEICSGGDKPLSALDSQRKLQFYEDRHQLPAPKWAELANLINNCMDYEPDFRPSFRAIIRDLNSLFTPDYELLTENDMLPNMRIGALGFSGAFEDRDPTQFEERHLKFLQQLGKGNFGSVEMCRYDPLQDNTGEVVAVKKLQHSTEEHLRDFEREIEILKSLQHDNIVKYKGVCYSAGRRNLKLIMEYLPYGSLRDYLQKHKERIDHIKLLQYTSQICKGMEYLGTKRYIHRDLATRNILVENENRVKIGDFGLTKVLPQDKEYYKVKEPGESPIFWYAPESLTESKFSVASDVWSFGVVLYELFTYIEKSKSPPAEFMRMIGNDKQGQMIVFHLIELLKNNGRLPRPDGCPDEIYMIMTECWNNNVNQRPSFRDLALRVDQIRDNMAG
# JAK2/JAK2 homdimeric complex, sequence (P32927 17-897 partner): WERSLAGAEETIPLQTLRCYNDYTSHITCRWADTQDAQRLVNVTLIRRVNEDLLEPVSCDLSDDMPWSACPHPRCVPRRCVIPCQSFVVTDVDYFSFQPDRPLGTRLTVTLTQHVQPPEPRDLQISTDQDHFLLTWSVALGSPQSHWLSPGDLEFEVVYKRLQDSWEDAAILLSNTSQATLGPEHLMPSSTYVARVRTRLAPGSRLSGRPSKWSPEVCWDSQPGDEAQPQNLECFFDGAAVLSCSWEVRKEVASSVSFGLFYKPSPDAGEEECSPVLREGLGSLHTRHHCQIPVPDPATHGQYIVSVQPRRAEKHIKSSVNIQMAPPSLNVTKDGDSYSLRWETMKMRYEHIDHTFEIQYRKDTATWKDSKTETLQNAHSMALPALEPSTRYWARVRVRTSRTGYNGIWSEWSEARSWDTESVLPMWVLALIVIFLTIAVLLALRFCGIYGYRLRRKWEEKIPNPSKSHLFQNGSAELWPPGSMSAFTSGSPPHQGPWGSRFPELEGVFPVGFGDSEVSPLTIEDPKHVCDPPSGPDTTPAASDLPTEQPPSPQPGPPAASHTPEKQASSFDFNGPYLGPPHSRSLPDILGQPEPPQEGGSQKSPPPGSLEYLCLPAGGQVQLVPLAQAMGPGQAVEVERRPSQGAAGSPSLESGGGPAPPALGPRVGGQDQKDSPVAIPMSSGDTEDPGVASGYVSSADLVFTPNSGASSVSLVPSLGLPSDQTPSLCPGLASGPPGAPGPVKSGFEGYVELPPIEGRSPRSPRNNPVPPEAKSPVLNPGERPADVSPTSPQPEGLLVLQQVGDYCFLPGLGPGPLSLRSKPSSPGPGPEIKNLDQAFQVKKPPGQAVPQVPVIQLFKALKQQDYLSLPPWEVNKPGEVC
# [2] = target: Tyk2/JAK2 (heterodimeric complex) (Homo sapiens (Human), UniProt P29597); assay: IL-12 Induced pSTAT4 in Human PBMC; format: cell-based; settings: 1.7 ng/mL IL-12
# Tyk2/JAK2 (heterodimeric complex), sequence (P29597 whole entry, other chains not shown): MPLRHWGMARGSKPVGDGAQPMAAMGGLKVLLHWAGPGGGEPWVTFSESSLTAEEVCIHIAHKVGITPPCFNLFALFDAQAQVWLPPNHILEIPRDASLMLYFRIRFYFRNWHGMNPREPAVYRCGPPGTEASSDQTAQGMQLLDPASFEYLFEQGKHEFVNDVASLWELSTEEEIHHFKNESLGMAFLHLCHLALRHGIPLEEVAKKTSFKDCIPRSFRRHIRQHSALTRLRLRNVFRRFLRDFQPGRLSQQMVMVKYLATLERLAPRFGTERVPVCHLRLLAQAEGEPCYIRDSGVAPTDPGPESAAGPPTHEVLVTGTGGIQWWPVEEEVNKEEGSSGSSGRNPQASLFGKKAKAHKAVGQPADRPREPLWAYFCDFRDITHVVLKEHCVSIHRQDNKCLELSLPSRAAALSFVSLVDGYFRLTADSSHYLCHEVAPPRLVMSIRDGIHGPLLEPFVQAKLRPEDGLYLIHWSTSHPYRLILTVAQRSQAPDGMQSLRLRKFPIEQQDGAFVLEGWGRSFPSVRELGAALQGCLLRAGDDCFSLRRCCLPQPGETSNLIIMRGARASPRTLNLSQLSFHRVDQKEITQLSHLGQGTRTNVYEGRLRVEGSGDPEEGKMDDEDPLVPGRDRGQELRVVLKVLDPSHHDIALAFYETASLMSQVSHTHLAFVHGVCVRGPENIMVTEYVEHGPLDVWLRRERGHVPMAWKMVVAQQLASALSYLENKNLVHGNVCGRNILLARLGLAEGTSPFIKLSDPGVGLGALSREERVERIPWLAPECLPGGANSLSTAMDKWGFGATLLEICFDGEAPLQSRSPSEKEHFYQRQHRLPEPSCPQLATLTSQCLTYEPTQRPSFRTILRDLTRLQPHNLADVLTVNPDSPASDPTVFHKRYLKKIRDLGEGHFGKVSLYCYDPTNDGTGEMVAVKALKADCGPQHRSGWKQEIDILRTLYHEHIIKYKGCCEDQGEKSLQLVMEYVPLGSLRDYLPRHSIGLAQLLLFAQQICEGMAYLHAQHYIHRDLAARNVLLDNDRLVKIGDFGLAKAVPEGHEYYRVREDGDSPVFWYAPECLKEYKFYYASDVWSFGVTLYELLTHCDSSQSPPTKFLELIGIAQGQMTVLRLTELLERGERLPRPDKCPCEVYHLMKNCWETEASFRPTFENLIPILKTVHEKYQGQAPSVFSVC
# Description: The IL-12 Induced pSTAT4 assay evaluates the inhibition of IL-12 induced STAT4 phophorylation mediated by Tyk2/JAK2 (heterodimeric complex).
# JAK2 kinase domain (JH1) = JAK2 kinase domain (JH1) (Homo sapiens (Human), UniProt O60674); assay: JAK2 Radioactive Kinase Assay; format: biochemical; settings: for inhibition at 10 µM: read-out: JAK2 JH1% Inhibition @ 10 μM
# JAK2 kinase domain (JH1), sequence (O60674 849-1124): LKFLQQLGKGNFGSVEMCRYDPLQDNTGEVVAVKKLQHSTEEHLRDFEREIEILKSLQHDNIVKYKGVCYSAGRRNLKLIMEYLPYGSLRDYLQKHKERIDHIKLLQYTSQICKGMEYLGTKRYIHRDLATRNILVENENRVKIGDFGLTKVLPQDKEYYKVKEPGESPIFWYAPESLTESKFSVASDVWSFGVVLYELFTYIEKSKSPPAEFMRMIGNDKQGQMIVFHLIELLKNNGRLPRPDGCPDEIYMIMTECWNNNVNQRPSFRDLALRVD
# How it was run: as §1
# [3] = target: human TYK2 (JH2domain-pseudokinase) (Homo sapiens (Human), UniProt P29597); assay: TYK2 JH2 Domain Binding Assay (KINOMEscan)
# human TYK2 (JH2domain-pseudokinase), sequence (P29597 556-888): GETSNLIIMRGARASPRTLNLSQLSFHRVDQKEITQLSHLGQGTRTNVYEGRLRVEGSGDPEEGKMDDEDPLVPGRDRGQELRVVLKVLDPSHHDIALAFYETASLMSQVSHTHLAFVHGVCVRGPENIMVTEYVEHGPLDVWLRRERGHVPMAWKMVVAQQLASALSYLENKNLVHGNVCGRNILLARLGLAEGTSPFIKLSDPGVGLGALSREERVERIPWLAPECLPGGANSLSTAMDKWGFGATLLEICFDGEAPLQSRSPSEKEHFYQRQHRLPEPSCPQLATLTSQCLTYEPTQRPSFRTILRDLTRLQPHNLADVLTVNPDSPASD
# How it was run: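 Kds, run in duplicate, came from Hill fits (slope fixed at −1) of an 11-point 3-fold dilution series starting at 30,000 nM. Bead-retained TYK2 JH2 (aa G556–D888)–NFkB DBD fusion, DNA-tagged and expressed in HEK293 cells, was read by qPCR after 1 h room-temperature binding in 0.9% DMSO.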
# Tyk2 kinase domain (DH1), sequence (P29597 897-1176): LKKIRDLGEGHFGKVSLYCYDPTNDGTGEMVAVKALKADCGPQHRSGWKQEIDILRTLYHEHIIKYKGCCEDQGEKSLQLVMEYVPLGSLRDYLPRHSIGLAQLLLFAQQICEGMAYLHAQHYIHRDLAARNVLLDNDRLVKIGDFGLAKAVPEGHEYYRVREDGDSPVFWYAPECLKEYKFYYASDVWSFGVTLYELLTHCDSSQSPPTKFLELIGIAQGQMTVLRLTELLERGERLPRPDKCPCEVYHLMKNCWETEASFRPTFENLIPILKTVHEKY
SMILES,"inhibition at 10 µM (Tyk2 kinase domain (DH1); 10 μM compound, 10 μM ATP)",IC50 [1],IC50 [2],"inhibition at 10 µM (JAK2 kinase domain (JH1); 10 μM compound, 10 μM ATP)",Kd [3],"inhibition at 10 µM (Tyk2 kinase domain (DH1); compound at 10 μM, ATP 10 μM)","inhibition at 10 µM (JAK2 kinase domain (JH1); compound at 10 μM, ATP 10 μM)","Tyk2 JH1% Inhibition @ 10 μM (Tyk2 kinase domain (DH1); compound at 10 μM, ATP 10 μM)","JAK2 JH1% Inhibition @ 10 μM (JAK2 kinase domain (JH1); compound at 10 μM, ATP 10 μM)"
CNc1cc(Nc2cccn([C@H]3CC[C@H](OC)CC3)c2=O)nc2c(C(=O)NC[C@H](C)CO)cnn12 [I-829],< 50%,> 50000 nM,< 100 nM,< 50%,< 0.2 nM,,,,
CNc1cc(Nc2cccn(-c3ncccc3F)c2=O)nc2c(C(=O)NCC(C)(C)CO)cnn12 [I-510],,> 50000 nM,< 100 nM,,< 0.2 nM,< 50%,< 50%,,
CNc1cc(Nc2cc(Cl)cn([C@H]3CCCN(C)C3)c2=O)nc2c(C(=O)N[C@@H]3C[C@@H]3F)cnn12 [I-854],< 50%,> 50000 nM,< 100 nM,< 50%,< 0.2 nM,,,,
CNc1cc(Nc2cccn(-c3ccccn3)c2=O)nc2c(C(=O)NC3CC3)cnn12 [I-680],,> 12500 nM,< 100 nM,,< 0.2 nM,< 50%,< 50%,,
CNc1cc(Nc2cccc(N3CCC34COC4)n2)nc2c(C(=O)N[C@H]3C[C@H]3F)cnn12 [I-709],,> 50000 nM,< 100 nM,,< 0.2 nM,< 50%,< 50%,,
"CNc1cc(-c2c[nH]c3c(C)cc(C)cc23)nc2c(C(N)=O)cnn12 [I-36, 5-(5,7-dimethyl-1H-indol-3-yl)-7-(methylamino)pyrazolo[1,5-a]pyrimidine-3-carboamide]",,> 12500 nM,< 100 nM,,< 0.2 nM,< 50%,< 50%,,
CNc1cc(Nc2cccn(-c3ccccn3)c2=O)nc2c(C(=O)N[C@H]3CC[C@H]3O)cnn12 [I-805],,> 12500 nM,< 100 nM,,< 0.2 nM,< 50%,< 50%,,
CNc1cc(Nc2cccn(-c3nc(C)c(C)s3)c2=O)nc2c(C(=O)N[C@H]3C[C@H]3F)cnn12 [I-292],,> 2500 nM,< 100 nM,,0.2 to 1 nM,< 50%,< 50%,,
CNc1cc(Nc2cc(Cl)cn(-c3cnn(C)c3)c2=O)nc2c(C(=O)N[C@H]3C[C@H]3F)cnn12 [I-312],,> 12500 nM,< 100 nM,,< 0.2 nM,< 50%,< 50%,,
CNc1cc(Nc2cccn(C[C@@H]3CCCCO3)c2=O)nc2c(C(=O)N[C@@H]3C[C@@H]3F)cnn12 [I-428],,> 50000 nM,< 100 nM,,< 0.2 nM,< 50%,< 50%,,
"CNC(=O)c1occc1Nc1cc(NC)n2ncc(C(=O)N[C@@H]3C[C@@H]3F)c2n1 [I-888, N-((1R,2S)-2-fluorocyclopropyl)-7-(methylamino)-5-((2-(methylcarbamoyl)furan-3-yl)amino)pyrazolo[1,5-a]pyrimidine-3-carboxamide]",< 50%,> 50000 nM,< 100 nM,< 50%,< 0.2 nM,,,,
CNc1cc(Nc2cccnc2OC)nc2c(C(=O)N[C@H]3CC[C@@H]3O)cnn12 [I-395],,> 12500 nM,< 100 nM,,< 0.2 nM,,,A (percent inhibition at 10 μM lower than 50),A (percent inhibition at 10 μM lower than 50)
CNc1cc(Nc2cccc(N3CCO[C@]4(CCOC4)C3)n2)nc2c(C(=O)NC3CC3)cnn12 [I-827],< 50%,> 50000 nM,100 to 500 nM,< 50%,< 0.2 nM,,,,
CNc1cc(Nc2cccn(-c3cc(C)on3)c2=O)nc2c(C(=O)NC3CC3)cnn12 [I-162],,> 2500 nM,< 100 nM,,< 0.2 nM,< 50%,< 50%,,
CNc1cc(Nc2cc(F)cnc2OC2CC2)nc2c(C(=O)N[C@H]3C[C@H]3F)cnn12 [I-275],,> 50000 nM,< 100 nM,,< 0.2 nM,< 50%,< 50%,,
"[2H]C([2H])([2H])Oc1ncccc1Nc1cc(NC)n2ncc(C(=O)N[C@H]3CC[C@H]3O)c2n1 (stereo in doubt) [I-399, N-((1 S,2R)-2-hydroxycyclobutyl)-5-((2-(methoxy-d3)pyridin-3-yl)amino)-7-(methylamino) pyrazolo[1,5-a]pyrimidine-3-carboxamide]",,> 12500 nM,< 100 nM,,< 0.2 nM,,,A (percent inhibition at 10 μM lower than 50),A (percent inhibition at 10 μM lower than 50)
CNc1cc(Nc2cc(Cl)cn(C3CCCOC3)c2=O)nc2c(C(=O)NC3CC3)cnn12 (stereo not shown) [I-711],,> 50000 nM,< 100 nM,,< 0.2 nM,< 50%,< 50%,,
CNc1cc(Nc2cccn(-c3ccc(F)cn3)c2=O)nc2c(C(=O)NC3CCC3)cnn12 [I-238],,> 50000 nM,< 100 nM,,< 0.2 nM,< 50%,< 50%,,

SMILES,"inhibition at 10 µM (Tyk2 kinase domain (DH1); 10 μM compound, 10 μM ATP)",IC50 [1],IC50 [2],"inhibition at 10 µM (JAK2 kinase domain (JH1); 10 μM compound, 10 μM ATP)",Kd [3],"inhibition at 10 µM (Tyk2 kinase domain (DH1); compound at 10 μM, ATP 10 μM)","inhibition at 10 µM (JAK2 kinase domain (JH1); compound at 10 μM, ATP 10 μM)","Tyk2 JH1% Inhibition @ 10 μM (Tyk2 kinase domain (DH1); compound at 10 μM, ATP 10 μM)","JAK2 JH1% Inhibition @ 10 μM (JAK2 kinase domain (JH1); compound at 10 μM, ATP 10 μM)"
CNc1cc(Nc2cc(Cl)cn(-c3ncc(C)s3)c2=O)nc2c(C(=O)N[C@H]3C[C@H]3F)cnn12 [I-323],,> 2500 nM,< 100 nM,,< 0.2 nM,< 50%,< 50%,,
CNc1cc(Nc2cccn([C@H]3CCCOC3)c2=O)nc2c(C(=O)NC3CCC3)cnn12 [I-354],,> 2500 nM,< 100 nM,,< 0.2 nM,< 50%,< 50%,,
CNc1cc(Nc2cccn(-c3ccc(C(=O)N4CCCC4)cn3)c2=O)nc2c(C(=O)NC3CCC3)cnn12 [I-121],,> 12500 nM,100 to 500 nM,,< 0.2 nM,< 50%,< 50%,,
CNc1cc(Nc2cccnc2OC(C)C)nc2c(C(N)=O)cnn12 [I-72],,> 12500 nM,100 to 500 nM,,< 0.2 nM,< 50%,< 50%,,
CNc1cc(Nc2cc(F)cn(-c3ccn(C)n3)c2=O)nc2c(C(=O)N[C@H]3C[C@H]3F)cnn12 [I-379],,> 2500 nM,< 100 nM,,< 0.2 nM,< 50%,< 50%,,
CNc1cc(Nc2cccn(-c3ccc(F)cc3)c2=O)nc2c(C(=O)N[C@H]3C[C@H]3F)cnn12 [I-132],,> 2500 nM,< 100 nM,,< 0.2 nM,< 50%,< 50%,,
CNc1cc(Nc2cc(F)cn([C@H]3CCCOC3)c2=O)nc2c(C(=O)N[C@H]3C[C@H]3F)cnn12 [I-559],,> 50000 nM,< 100 nM,,< 0.2 nM,< 50%,< 50%,,
CNc1cc(Nc2cccnc2OC2CC2)nc2c(C(=O)NC3CCC3)cnn12 [I-216],,> 12500 nM,< 100 nM,,< 0.2 nM,< 50%,< 50%,,
CNc1cc(Nc2cc(F)cn(-c3cnn(C)c3)c2=O)nc2c(C(=O)N[C@H]3C[C@H]3F)cnn12 [I-381],,> 12500 nM,< 100 nM,,< 0.2 nM,< 50%,< 50%,,
CNc1cc(Nc2cccn(-c3cnco3)c2=O)nc2c(C(=O)N[C@@H]3C[C@@H]3F)cnn12 [I-762],,> 2500 nM,< 100 nM,,< 0.2 nM,< 50%,< 50%,,
CNc1cc(Nc2cccn(-c3ccc(F)cc3)c2=O)nc2c(C(=O)NC3CCC3)cnn12 [I-246],,> 2500 nM,< 100 nM,,< 0.2 nM,< 50%,< 50%,,
CNc1cc(Nc2cccc(N3CCCC3=O)n2)nc2c(C(N)=O)cnn12 [I-47],,> 300 nM,< 100 nM,,< 0.2 nM,< 50%,< 50%,,
CNc1cc(Nc2cc(Cl)cn(C3CCCN(C)C3)c2=O)nc2c(C(=O)N[C@@H]3C[C@@H]3F)cnn12 (stereo partly shown) [I-759],,> 50000 nM,< 100 nM,,< 0.2 nM,< 50%,< 50%,,
CNc1cc(Nc2cccnc2OC(C)C)nc2c(C(=O)N[C@H]3C[C@H]3F)cnn12 [I-147],,> 50000 nM,< 100 nM,,< 0.2 nM,< 50%,< 50%,,
CNc1cc(Nc2cccn(-c3cncc(C)c3)c2=O)nc2c(C(=O)NC3CCC3)cnn12 [I-303],,> 50000 nM,< 100 nM,,< 0.2 nM,< 50%,< 50%,,
CNc1cc(Nc2cc(Cl)cn(-c3cnn(C4CC4)c3C)c2=O)nc2c(C(=O)N[C@H]3C[C@H]3F)cnn12 [I-326],,> 50000 nM,< 100 nM,,< 0.2 nM,< 50%,< 50%,,
CNc1cc(Nc2cccn([C@@H]3CCC[C@H](OC)C3)c2=O)nc2c(C(=O)NCC(C)(C)CO)cnn12 [I-951],< 50%,> 50000 nM,< 100 nM,< 50%,< 0.2 nM,,,,

# Reference: patent US10508120B2, “TYK2 inhibitors and uses thereof” (Nimbus Lakshmi, Inc., priority 2017, dated 2019)
